Source: the NIST ThermoML archive (doi:10.1016/j.jct.2016.10.023)

Experiment: xn = mol fraction of the nth substance listed
Conditions: Constant-volume piezometry

CCCCC [pentane] + CCCO
Conditions | mass density [kg/m3]
543.15 K, 9051 kPa, Fluid (supercritical or subcritical phases), x1 = 0.2 | 378.24
543.15 K, 9246 kPa, Fluid (supercritical or subcritical phases), x1 = 0.8 | 288.09
543.15 K, 9255 kPa, Fluid (supercritical or subcritical phases), x1 = 0.2 | 383.04
543.15 K, 9409 kPa, Fluid (supercritical or subcritical phases), x1 = 0.9 | 301.38
543.15 K, 9589 kPa, Fluid (supercritical or subcritical phases), x1 = 0.2 | 390.87
543.15 K, 9630 kPa, Fluid (supercritical or subcritical phases), x1 = 0.8 | 298.89
543.15 K, 9923 kPa, Fluid (supercritical or subcritical phases), x1 = 0.9 | 312.01
543.15 K, 10354 kPa, Fluid (supercritical or subcritical phases), x1 = 0.8 | 315.05
543.15 K, 11098 kPa, Fluid (supercritical or subcritical phases), x1 = 0.9 | 333.7
543.15 K, 11177 kPa, Fluid (supercritical or subcritical phases), x1 = 0.2 | 418.27
543.15 K, 11295 kPa, Fluid (supercritical or subcritical phases), x1 = 0.8 | 333.52
543.15 K, 11953 kPa, Fluid (supercritical or subcritical phases), x1 = 0.8 | 345.03
543.15 K, 12737 kPa, Fluid (supercritical or subcritical phases), x1 = 0.9 | 353.77
543.15 K, 13394 kPa, Fluid (supercritical or subcritical phases), x1 = 0.8 | 361.57
543.15 K, 15943 kPa, Fluid (supercritical or subcritical phases), x1 = 0.2 | 469.86
543.15 K, 19097 kPa, Fluid (supercritical or subcritical phases), x1 = 0.9 | 406.88
543.15 K, 19983 kPa, Fluid (supercritical or subcritical phases), x1 = 0.8 | 417.78
543.15 K, 22804 kPa, Fluid (supercritical or subcritical phases), x1 = 0.2 | 509.01
543.15 K, 31784 kPa, Fluid (supercritical or subcritical phases), x1 = 0.8 | 466.21
543.15 K, 33595 kPa, Fluid (supercritical or subcritical phases), x1 = 0.2 | 546.39
543.15 K, 42744 kPa, Fluid (supercritical or subcritical phases), x1 = 0.8 | 495.57
543.15 K, 49093 kPa, Fluid (supercritical or subcritical phases), x1 = 0.2 | 580.61
553.15 K, 1401 kPa, Gas, x1 = 0.8 | 22.49
553.15 K, 1675 kPa, Gas, x1 = 0.2 | 24.89
553.15 K, 2144 kPa, Gas, x1 = 0.8 | 36.64
553.15 K, 3159 kPa, Gas, x1 = 0.8 | 58.33
553.15 K, 3511 kPa, Gas, x1 = 0.2 | 52.93
553.15 K, 3789 kPa, Gas, x1 = 0.8 | 73.69
553.15 K, 4048 kPa, Fluid (supercritical or subcritical phases), x1 = 0.9 | 83.26
553.15 K, 4680 kPa, Gas, x1 = 0.2 | 91.28
553.15 K, 4938 kPa, Fluid (supercritical or subcritical phases), x1 = 0.8 | 106.25
553.15 K, 5296 kPa, Fluid (supercritical or subcritical phases), x1 = 0.9 | 123.17
553.15 K, 5319 kPa, Fluid (supercritical or subcritical phases), x1 = 0.2 | 114.19
553.15 K, 5611 kPa, Fluid (supercritical or subcritical phases), x1 = 0.9 | 133.93
553.15 K, 6054 kPa, Fluid (supercritical or subcritical phases), x1 = 0.8 | 140.1
553.15 K, 6100 kPa, Fluid (supercritical or subcritical phases), x1 = 0.2 | 150.13
553.15 K, 6344 kPa, Fluid (supercritical or subcritical phases), x1 = 0.9 | 163.72
553.15 K, 6388 kPa, Fluid (supercritical or subcritical phases), x1 = 0.8 | 155.82
553.15 K, 6521 kPa, Fluid (supercritical or subcritical phases), x1 = 0.2 | 175.35
553.15 K, 6714 kPa, Fluid (supercritical or subcritical phases), x1 = 0.2 | 189.36
553.15 K, 6741 kPa, Fluid (supercritical or subcritical phases), x1 = 0.8 | 169.54
553.15 K, 6874 kPa, Fluid (supercritical or subcritical phases), x1 = 0.8 | 175.77
553.15 K, 6982 kPa, Fluid (supercritical or subcritical phases), x1 = 0.9 | 189.18
553.15 K, 6985 kPa, Fluid (supercritical or subcritical phases), x1 = 0.8 | 180.56
553.15 K, 7102 kPa, Fluid (supercritical or subcritical phases), x1 = 0.2 | 219.77
553.15 K, 7277 kPa, Fluid (supercritical or subcritical phases), x1 = 0.9 | 202.08
553.15 K, 7296 kPa, Fluid (supercritical or subcritical phases), x1 = 0.8 | 192.88
553.15 K, 7439 kPa, Fluid (supercritical or subcritical phases), x1 = 0.2 | 245.11
553.15 K, 7620 kPa, Fluid (supercritical or subcritical phases), x1 = 0.2 | 258.81
553.15 K, 7669 kPa, Fluid (supercritical or subcritical phases), x1 = 0.2 | 262.51
553.15 K, 7760 kPa, Fluid (supercritical or subcritical phases), x1 = 0.9 | 220.36
553.15 K, 7786 kPa, Fluid (supercritical or subcritical phases), x1 = 0.8 | 213.54
553.15 K, 7792 kPa, Fluid (supercritical or subcritical phases), x1 = 0.2 | 271.95
553.15 K, 7945 kPa, Fluid (supercritical or subcritical phases), x1 = 0.8 | 219.29
553.15 K, 8057 kPa, Fluid (supercritical or subcritical phases), x1 = 0.2 | 290.1
553.15 K, 8082 kPa, Fluid (supercritical or subcritical phases), x1 = 0.9 | 232.72
553.15 K, 8169 kPa, Fluid (supercritical or subcritical phases), x1 = 0.9 | 236.18
553.15 K, 8267 kPa, Fluid (supercritical or subcritical phases), x1 = 0.9 | 240.57
553.15 K, 8315 kPa, Fluid (supercritical or subcritical phases), x1 = 0.8 | 234.36
553.15 K, 8323 kPa, Fluid (supercritical or subcritical phases), x1 = 0.2 | 306.36
553.15 K, 8361 kPa, Fluid (supercritical or subcritical phases), x1 = 0.9 | 243.88
553.15 K, 8384 kPa, Fluid (supercritical or subcritical phases), x1 = 0.2 | 310.58
553.15 K, 8538 kPa, Fluid (supercritical or subcritical phases), x1 = 0.2 | 318.29
553.15 K, 8586 kPa, Fluid (supercritical or subcritical phases), x1 = 0.8 | 244.98
553.15 K, 8982 kPa, Fluid (supercritical or subcritical phases), x1 = 0.8 | 258.18
553.15 K, 9164 kPa, Fluid (supercritical or subcritical phases), x1 = 0.2 | 340.74
553.15 K, 9236 kPa, Fluid (supercritical or subcritical phases), x1 = 0.2 | 343.52
553.15 K, 9433 kPa, Fluid (supercritical or subcritical phases), x1 = 0.8 | 272.13
553.15 K, 9589 kPa, Fluid (supercritical or subcritical phases), x1 = 0.9 | 281.59
553.15 K, 10042 kPa, Fluid (supercritical or subcritical phases), x1 = 0.8 | 287.95
553.15 K, 10274 kPa, Fluid (supercritical or subcritical phases), x1 = 0.9 | 301.23
553.15 K, 10469 kPa, Fluid (supercritical or subcritical phases), x1 = 0.8 | 298.75
553.15 K, 10491 kPa, Fluid (supercritical or subcritical phases), x1 = 0.2 | 378.05
553.15 K, 10735 kPa, Fluid (supercritical or subcritical phases), x1 = 0.2 | 382.84
